Our source for the IC50 values is patent US20230095520A1, “PHARMACEUTICAL COMPOSITION FOR PREVENTING OR TREATING CANCER COMPRISING AZOLE DERIVATIVES OR PHARMACEUTICALLY ACCEPTABLE SALT THEREOF” (Yungjin Pharm. Co., Ltd., priority 2020, published 2023).

Molecules are shown by their SMILES.

The experiment has as its target T1, Recombinant purified human CDK7 (Homo sapiens, UniProt P50613).
T1 construct: purchased ThermoFisher PV3868
Kind of experiment: CDK7 activity inhibition, ADP-Glo kinase assay. The following applies: ATP 90 μM, MBP substrate, 2 hours 30° C. The experiment is classed as biochemical. As to the method:
Recombinant purified human CDK7 (ThermoFisher, PV3868) and ADP Glo Kinase Assay Kit (Promega, V9102) were used. CDK7 was diluted with 1× kinase reaction buffer (40 mM Tris-Cl, pH 7.5, 20 mM MgCl2, 0.1 mg/ml BSA and 50 μM DTT) and added to a 96 well plate (CDK7 final concentration per reaction: 50 ng). It was finally treated with the compound of the present invention to a 1% DMSO aqueous solution, and a substrate cocktail containing ATP (final concentration of 90 μM) and 0.2 μg/μl MBP (myelin basic protein) in a total of 25 μl reaction mass was added to a 96 well plate, thereby initiating the enzymatic reaction. After 2 hours of incubation (30° C.), an equal volume (25 μl per reaction) of ADP Glo was added and incubated at room temperature for 60 minutes (30° C.). Thereafter, kinase detection reagent (50 μl per reaction) was added and incubated at room temperature for 30 minutes (30° C.). The kinase activity was measured by the chemiluminescence method according to the ADP Glo Kinase Assay Kit instruction manual, and the CDK7 inhibitory activity of the compounds of the present invention was calculated.
In general terms: ADP-Glo first removes unused ATP, then detects ADP through luciferase.

T1 sequence (P50613 whole entry): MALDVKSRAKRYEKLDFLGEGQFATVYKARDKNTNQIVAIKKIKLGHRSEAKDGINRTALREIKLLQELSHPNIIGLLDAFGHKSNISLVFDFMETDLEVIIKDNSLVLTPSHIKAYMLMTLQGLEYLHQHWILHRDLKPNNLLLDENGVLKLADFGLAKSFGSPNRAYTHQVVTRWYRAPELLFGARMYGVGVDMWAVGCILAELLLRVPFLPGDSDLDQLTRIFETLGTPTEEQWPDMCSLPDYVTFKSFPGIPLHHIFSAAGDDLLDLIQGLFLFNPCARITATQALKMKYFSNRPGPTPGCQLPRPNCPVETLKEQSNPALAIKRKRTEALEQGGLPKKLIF
T1 sequence (P51946 whole entry partner): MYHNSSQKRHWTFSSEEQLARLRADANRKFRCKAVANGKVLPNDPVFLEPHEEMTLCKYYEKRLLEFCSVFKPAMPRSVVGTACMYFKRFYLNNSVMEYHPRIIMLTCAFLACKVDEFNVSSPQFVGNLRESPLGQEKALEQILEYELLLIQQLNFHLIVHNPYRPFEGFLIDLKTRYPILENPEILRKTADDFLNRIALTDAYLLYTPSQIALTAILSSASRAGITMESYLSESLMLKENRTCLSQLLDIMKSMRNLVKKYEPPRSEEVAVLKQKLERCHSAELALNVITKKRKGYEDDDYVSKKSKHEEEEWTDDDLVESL
T1 sequence (P51948 whole entry partner): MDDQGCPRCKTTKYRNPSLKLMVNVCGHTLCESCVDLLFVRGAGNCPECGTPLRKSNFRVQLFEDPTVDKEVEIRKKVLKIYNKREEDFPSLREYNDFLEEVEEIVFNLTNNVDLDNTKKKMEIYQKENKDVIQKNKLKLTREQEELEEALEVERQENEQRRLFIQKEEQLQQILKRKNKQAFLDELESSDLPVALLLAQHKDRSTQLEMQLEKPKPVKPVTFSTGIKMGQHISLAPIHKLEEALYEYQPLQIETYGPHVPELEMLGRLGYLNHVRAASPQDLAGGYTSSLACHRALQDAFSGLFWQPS

As a reminder, the IC50 is the midpoint of a concentration-inhibition curve. Regarding `C=CC(=O)Nc1cc(F)c(-c2cncc(C(C)C(=O)Nc3ncc(C(F)(F)F)s3)c2)cn1` (stereo not drawn) [Compound 84, N-(4-fluoro-5′-(1-oxo-1-((5-(trifluoromethyl)thiazol-2-yl)amino)propan-2-yl)-[3,3′-bipyridin]-6-yl)acrylamide], the IC50 was 68 nM.
Consider `CCN(CC)C/C=C/C(=O)Nc1cnc(-c2cccc([C@H](C)C(=O)Nc3ncc(C(F)(F)F)s3)c2)cn1` [Compound 114, (S,E)-4-(diethylamino)-N-(5-(3-(1-oxo-1-((5-(trifluoromethyl)thiazol-2-yl)amino)propan-2-yl)phenyl)pyrazin-2-yl)but-2-enamide], for which the IC50 is 12 nM.
As for `CCc1cnc(NC(=O)[C@@H](C)c2cccc(-c3cnc4c(c3)CCN4C(=O)/C=C/CN(C)C)c2)s1` [Compound 122, (S,E)-2-(3-(1-(4-(dimethylamino)but-2-enoyl)-2,3-dihydro-1H-pyrrolo[2,3-b]pyridin-5-yl)phenyl)-N-(5-ethylthiazol-2-yl)propanamide], the IC50 came to 6 nM.
As for `C[C@H](C(=O)Nc1ncc(Cl)s1)c1cccc(-c2cnc(NC(=O)/C=C/CN3CC4CC3CO4)cn2)c1` (stereo partly drawn) [Compound 94, (E)-4-(2-oxa-5-azabicyclo[2.2.1]heptan-5-yl)-N-(5-(3-((S)-1-((5-chlorothiazol-2-yl)amino)-1-oxopropan-2-yl)phenyl)pyrazin-2-yl)but-2-enamide], the IC50 was 14.5 nM.
As to `C=CC(=O)Nc1ncc(-c2cncc(C(C)C(=O)Nc3ncc(C(F)(F)F)s3)c2)cc1C#N` (stereo not drawn) [Compound 88, N-(5-cyano-5′-(1-oxo-1-((5-(trifluoromethyl)thiazol-2-yl)amino)propan-2-yl)-[3,3′-bipyridin]-6-yl)acrylamide], the IC50 came to 16 nM.
Then `C[C@H](C(=O)Nc1ncc(C(F)(F)F)s1)c1cccc(-c2cnc(NC(=O)/C=C/CN3CCC3)cn2)c1` [Compound 103, (S,E)-4-(azetidin-1-yl)-N-(5-(3-(1-oxo-1-((5-(trifluoromethyl)thiazol-2-yl)amino)propan-2-yl)phenyl)pyrazin-2-yl)but-2-enamide], with 13 nM; and `CC(C(=O)Nc1ncc(C(F)(F)F)s1)c1cncc(-c2ccc(NC(=O)/C=C/CN(C)C)nc2)c1` (stereo not drawn) [Compound 107, (E)-4-(dimethylamino)-N-(5′-(1-oxo-1-((5-(trifluoromethyl)thiazol-2-yl)amino)propan-2-yl)-[3,3′-bipyridin]-6-yl)but-2-enamide], with 31 nM; and `C[C@H](C(=O)Nc1ncc(C(F)(F)F)s1)c1cccc(-c2cnc(NC(=O)/C=C/CN(C)C)c(C(F)(F)F)c2)c1` [Compound 111, (S,E)-4-(dimethylamino)-N-(5-(3-(1-oxo-1-((5-(trifluoromethyl)thiazol-2-yl)amino)propan-2-yl)phenyl)-3-(trifluoromethyl)pyridin-2-yl)but-2-enamide], with 9.5 nM.
Take `CCc1cnc(NC(=O)C2(c3cccc(-c4cnc5c(c4)CCN5C(=O)/C=C/CN(C)C)c3)CC2)s1` [Compound 133, (E)-1-(3-(1-(4-(dimethylamino)but-2-enoyl)-2,3-dihydro-1H-pyrrolo[2,3-b]pyridin-5-yl)phenyl)-N-(5-ethylthiazol-2-yl)cyclopropane-1-carboxamide]: the IC50 stood at 47 nM.
Regarding `CC(C(=O)Nc1ncc(C2CC2)s1)c1cccc(-c2ccc(NC(=O)/C=C/CN(C)C)nc2)c1` (stereo not drawn) [Compound 6, (E)-N-(5-(3-(1-((5-cyclopropylthiazol-2-yl)amino)-1-oxopropan-2-yl)phenyl)pyridin-2-yl)-4-(dimethylamino)but-2-enamide], the IC50 stood at 35 nM.
Take `COC[C@@H]1CCCN1C/C=C/C(=O)Nc1cnc(-c2cccc([C@H](C)C(=O)Nc3ncc(C(F)(F)F)s3)c2)cn1` [Compound 118, (E)-4-((S)-2-(methoxymethyl)pyrrolidin-1-yl)-N-(5-(3-((S)-1-oxo-1-((5-(trifluoromethyl)thiazol-2-yl)amino)propan-2-yl)phenyl)pyrazin-2-yl)but-2-enamide]: the IC50 was 20 nM.
Take `C[C@H](C(=O)Nc1ncc(N(C)C)s1)c1cccc(-c2cnc(NC(=O)/C=C/CN(C)C)cn2)c1` [Compound 106, (S,E)-4-(dimethylamino)-N-(5-(3-(1-((5-(dimethylamino)thiazol-2-yl)amino)oxopropan-2-yl)phenyl)pyrazin-2-yl)but-2-enamide]: the half-maximal inhibitory concentration (IC50) was 71 nM.
In the case of `CCc1cnc(NC(=O)[C@@H](C)c2cccc(-c3cnc(NC(=O)/C=C/CN(C)C)c(C)c3)c2)s1` [Compound 125, (S,E)-4-(dimethylamino)-N-(5-(3-(1-((5-ethylthiazol-2-yl)amino)-1-oxopropan-2-yl)phenyl)-3-methylpyridin-2-yl)but-2-enamide], the IC50 was determined as 13.2 nM.
In the case of `CCc1cnc(NC(=O)[C@@H](C)c2cccc(-c3cnc(NC(=O)/C=C/CN4CCOCC4)c(C#N)c3)c2)s1` [Compound 135, (S,E)-N-(3-cyano-5-(3-(1-((5-ethylthiazol-2-yl)amino)-1-oxopropan-2-yl)phenyl)pyridin-2-yl)-4-morpholinobut-2-enamide], the IC50 came to 13 nM.
Take `C[C@H](C(=O)Nc1ncc(C(F)(F)F)s1)c1cccc(-c2cnc(NC(=O)/C=C/CN(C)C)c(Cl)c2)c1` [Compound 113, (S,E)-N-(3-chloro-5-(3-(1-oxo-1-((5-(trifluoromethyl)thiazol-2-yl)amino)propan-2-yl)phenyl)pyridin-2-yl)-4-(dimethylamino)but-2-enamide]: the IC50 was found to be 8.5 nM.
Then `C=CC(=O)Nc1ccc(-c2csc(C(C)C(=O)Nc3ncc(Cl)s3)c2)cn1` (stereo not drawn) [Compound 76, N-(5-(5-(1-((5-chlorothiazol-2-yl)amino)-1-oxopropan-2-yl)thiophen-3-yl)pyridin-2-yl)acrylamide], with 92 nM; and `C[C@H](C(=O)Nc1ncc(C(F)(F)F)s1)c1cccc(-c2cnc(NC(=O)/C=C/CN3CCCCC3)cn2)c1` [Compound 120, (S,E)-N-(5-(3-(1-oxo-1-((5-(trifluoromethyl)thiazol-2-yl)amino)propan-2-yl)phenyl)pyrazin-2-yl)-4-(piperidin-1-yl)but-2-enamide], with 16 nM.
As for `C[C@H](C(=O)Nc1ncc(C(F)(F)F)s1)c1cccc(-c2cnc(NC(=O)/C=C/CN3CCOCC3)cn2)c1` [Compound 92, (S,E)-4-morpholino-N-(5-(3-(1-oxo-1-((5-(trifluoromethyl)thiazol-2-yl)amino)propan-2-yl)phenyl)pyrazin-2-yl)but-2-enamide], the IC50 was 42 nM.
Consider `C[C@H](C(=O)Nc1ncc(Cl)s1)c1cccc(-c2cnc(NC(=O)/C=C/CN(C)C)cn2)c1` [Compound 93, (S,E)-N-(5-(3-(1-((5-chlorothiazol-2-yl)amino)-1-oxopropan-2-yl)phenyl)pyrazin-2-yl)-4-(dimethylamino)but-2-enamide], for which the IC50 was 93 nM.
Take `CCc1cnc(NC(=O)C(C)c2cncc(-c3cnc(NC(=O)/C=C/CN(C)C)c(C#N)c3)c2)s1` (stereo not drawn) [Compound 137, (E)-N-(5-cyano-5′-(1-((5-ethylthiazol-2-yl)amino)-1-oxopropan-2-yl)-[3,3′-bipyridin]-6-yl)-4-(dimethylamino)but-2-enamide]: the IC50 was 13 nM.
`CCc1cnc(NC(=O)[C@@H](C)c2cccc(-c3cnc(N(C)C(=O)/C=C/CN(C)C)c(C#N)c3)c2)s1` [Compound 132, (S,E)-N-(3-cyano-5-(3-(1-((5-ethylthiazol-2-yl)amino)-1-oxopropan-2-yl)phenyl)pyridin-2-yl)-4-(dimethylamino)-N-methylbut-2-enamide]: the IC50 came out at 6.6 nM.
